# Reference: patent publication US20080176810A1, “Use of 3, 4', 5-Trihydroxy-Stilbene-3-Beta-D-glucoside in Prepartion of Medicines For Treating and/or Preventing Ischemic Heart Disease” (SHENZHEN NEPTUNUS PHARMACEUTICAL CO., LTD., priority 2004, published 2008)
# System: anesthetized dogs
# Assay: Myocardial oxygen consumption, coronary flow, cardiac output in anesthetized dogs, iv
# Assay type: in vivo
# Details: c3-c8 5,15,30,60,90,120 min after administration; for coronary artery resistance, x ± s / myocardial oxygen consumption, x ± s / total peripheral resistance (TPR), x ± s / cardiac output, x ± s / myocardial oxygen uptake, x ± s: c2 0 min before
# Protocol: Isosorbide Dinitrate control group were medicated by continuous intravenous infusion and other groups by intravenous injection.
# The animals were anesthetised with 3% pentobarbital sodium iv at the dose of 30 mg/kg. Tracheal intubation was performed and SC-M5 anesthesia respirator (manufactured by Shanghai Medical Instrument Factory, frequency: 16˜18 per min, tidal volume: 350˜550 ml) was connected. Bilateral femoral arteries were separated for blood sampling and analyzing and measurement of mean blood pressure. Thoracotomy at the fourth intercostal space was performed to expose the heart and to open the pericardium to make pericardial hammock. Ascending aortic root and upper part of left branch of anterior descending coronary artery were dissociated to put respectively probes of electromagnetic flowmeter (MFV-1100/1200, made by Japanese Nihon Kohden Company) to measure cardiac output and coronary artery flow rate. Right jugular vein was separated for insertion of a cardiac catheter that was guided into coronary venous sinuses before fixation. Synchronously, blood was sampled by drawing from coronary sinus and femoral artery (0.5% heparin was added for anticoagulation). pO2 and pH were detected with a blood gas analyzer (DH-1830 Blood Gas Acid-base Analyze, Nanjing Ananalysis Apparatus Factor) and the values were converted to artery and venous oxygen content. After intravenous infusion of control solvent or the drug, constant infusion for all groups was completed with an electronic constant flow pump (SH-88AB Controllable Intravenous Injector made by Quanzhou Lizhong Electronic Medical Instrument Factory). Both artery and venous blood gas before administration or 5, 15, 30, 60, 90 and 120 min after administration was analyzed and mean blood pressure and cardiac output at 0, 5, 15, 30, 60, 90 and 120 min were observed.
# Myocardial oxygen consumption(ml/min/100 g)=coronary flow ml/min/100 g×artery oxygen−coronary sinus oxygen ml %).
# Myocardial oxygen uptake (%)=(artery oxygen ml %−coronary sinus oxygen ml %)/artery oxygen ml %
# Total peripheral resistance of general circulation(dyn·s·cm−5)=mean arterial blood pressure[MAP(KPa)]×80/cardiac output[CO(L/min)]=mean arterial blood pressure[MAP(mmHg)]×10.6/cardiac output[CO(L/min)]
# Coronary resistance[Kpa/ml/min]=mean arterial blood pressure[MAP(KPa)]/coronary artery flow.
# [1] = TSG 2.5 mg/kg iv, 0 min, before administration
# [2] = TSG 2.5 mg/kg iv, 5 min after administration
# [3] = TSG 2.5 mg/kg iv, 15 min after administration
# [4] = TSG 2.5 mg/kg iv, 30 min after administration
# [5] = TSG 2.5 mg/kg iv, 60 min after administration
# [6] = TSG 2.5 mg/kg iv, 90 min after administration
# [7] = TSG 2.5 mg/kg iv, 120 min after administration
# [8] = TSG 2.5 mg/kg iv, before administration, 0 min
# [9] = TSG 5 mg/kg iv, 0 min, before administration
# [10] = TSG 5 mg/kg iv, 5 min after administration
# [11] = TSG 5 mg/kg iv, 15 min after administration
# [12] = TSG 5 mg/kg iv, 30 min after administration
# [13] = TSG 5 mg/kg iv, 60 min after administration
# [14] = TSG 5 mg/kg iv, 90 min after administration
# [15] = TSG 5 mg/kg iv, 120 min after administration
substance,measurement,setting,value
"3,4′,5-trihydroxy-stilbene-3-β-D-glucoside [TSG]","coronary artery resistance, x ± s",[1],0.268 ± 0.050 Kpa/ml/min
same,"myocardial oxygen consumption, x ± s",[1],214.6 ± 5.24 mL/min.100 g^−1
same,"total peripheral resistance (TPR), x ± s",[1],888.8 ± 200.9 dyn·s·cm^−5
same,"cardiac output, x ± s",[2],1.09 ± 0.12 L/min
same,"coronary artery resistance, x ± s",[2],0.269 Kpa/ml/min
same,"myocardial oxygen consumption, x ± s",[2],215.5 ± 8.73 mL/min.100 g^−1
same,"myocardial oxygen uptake, x ± s",[2],77.4%
same,"total peripheral resistance (TPR), x ± s",[2],873.5 ± 210.3 dyn·s·cm^−5
same,"cardiac output, x ± s",[3],1.09 ± 0.14 L/min
same,"coronary artery resistance, x ± s",[3],0.266 ± 0.049 Kpa/ml/min
same,"total peripheral resistance (TPR), x ± s",[3],888.7 ± 208.8 dyn·s·cm^−5
same,"cardiac output, x ± s",[4],1.10 ± 0.13 L/min
same,"coronary artery resistance, x ± s",[4],0.257 ± 0.054 Kpa/ml/min
same,"myocardial oxygen consumption, x ± s",[4],218.2 ± 6.85 mL/min.100 g^−1
same,"myocardial oxygen uptake, x ± s",[4],74.2 ± 5.11%
same,"total peripheral resistance (TPR), x ± s",[4],869.1 ± 249.3 dyn·s·cm^−5
same,"cardiac output, x ± s",[5],1.11 ± 0.13 L/min
same,"coronary artery resistance, x ± s",[5],0.261 ± 0.051 Kpa/ml/min
same,"myocardial oxygen consumption, x ± s",[5],218.0 ± 8.95 mL/min.100 g^−1
same,"myocardial oxygen uptake, x ± s",[5],73.1 ± 6.16%
same,"total peripheral resistance (TPR), x ± s",[5],890.2 ± 240.3 dyn·s·cm^−5
same,"coronary artery resistance, x ± s",[6],0.267 ± 0.054 Kpa/ml/min
same,"myocardial oxygen consumption, x ± s",[6],214.1 ± 8.39 mL/min.100 g^−1
same,"myocardial oxygen uptake, x ± s",[6],75.0 ± 6.24%
same,"total peripheral resistance (TPR), x ± s",[6],877.6 ± 225.1 dyn·s·cm^−5
same,"cardiac output, x ± s",[7],1.10 ± 0.14 L/min
same,"coronary artery resistance, x ± s",[7],0.271 ± 0.055 Kpa/ml/min
same,"total peripheral resistance (TPR), x ± s",[7],868.6 ± 221.8 dyn·s·cm^−5
same,"cardiac output, x ± s",[8],1.06 ± 0.13 L/min
same,"myocardial oxygen uptake, x ± s",[8],76.9 ± 5.50%
same,"cardiac output, variation %",[2],2.50 ± 2.42%
same,"coronary artery resistance, variation %",[2],0.81%
same,"myocardial oxygen consumption, variation %",[2],0.40 ± 3.16%
same,"myocardial oxygen uptake, variation %",[2],0.72%
same,"total peripheral resistance (TPR), variation %",[2],−1.89 ± 6.74%
same,"cardiac output, variation %",[3],1.97 ± 1.55%
same,"coronary artery resistance, variation %",[3],−0.34 ± 2.36%
same,"total peripheral resistance (TPR), variation %",[3],−0.10 ± 4.21%
same,"cardiac output, variation %",[4],3.88 ± 3.48%
same,"coronary artery resistance, variation %",[4],−3.82 ± 9.83%
same,"myocardial oxygen consumption, variation %",[4],1.66 ± 1.48%
same,"myocardial oxygen uptake, variation %",[4],−3.47 ± 1.59%
same,"total peripheral resistance (TPR), variation %",[4],−3.22 ± 9.65%
same,"cardiac output, variation %",[5],4.41 ± 1.40%
same,"coronary artery resistance, variation %",[5],−2.48 ± 8.17%
same,"myocardial oxygen consumption, variation %",[5],1.57 ± 2.94%
same,"myocardial oxygen uptake, variation %",[5],−4.99 ± 3.01 %
same,"total peripheral resistance (TPR), variation %",[5],−0.56 ± 7.52%
same,"cardiac output, variation %",[6],4.40 ± 1.64%
same,"coronary artery resistance, variation %",[6],−0.24 ± 10.72%
same,"myocardial oxygen consumption, variation %",[6],−0.25 ± 2.84%
same,"myocardial oxygen uptake, variation %",[6],−2.58 ± 2.67 %
same,"total peripheral resistance (TPR), variation %",[6],−1.52 ± 9.42%
same,"cardiac output, variation %",[7],3.23 ± 2.57%
same,"coronary artery resistance, variation %",[7],1.19 ± 6.55%
same,"total peripheral resistance (TPR), variation %",[7],−2.58 ± 7.26%
same,"coronary artery resistance, x ± s",[9],0.299 ± 0.029 Kpa/ml/min
same,"myocardial oxygen consumption, x ± s",[9],211.4 ± 4.05 mL/min.100 g^−1
same,"total peripheral resistance (TPR), x ± s",[9],906.3 ± 193.9 dyn·s·cm^−5
same,"cardiac output, x ± s",[10],1.13 ± 0.12 L/min
same,"coronary artery resistance, x ± s",[10],0.308 Kpa/ml/min
same,"myocardial oxygen consumption, x ± s",[10],210.4 ± 6.48 mL/min.100 g^−1
same,"myocardial oxygen uptake, x ± s",[10],79.6%
same,"total peripheral resistance (TPR), x ± s",[10],897.1 ± 184.7 dyn·s·cm^−5
same,"cardiac output, x ± s",[11],1.13 ± 0.13 L/min
same,"coronary artery resistance, x ± s",[11],0.305 ± 0.029 Kpa/ml/min
same,"total peripheral resistance (TPR), x ± s",[11],916.6 ± 186.2 dyn·s·cm^−5
same,"cardiac output, x ± s",[12],1.15 ± 0.14 L/min
same,"coronary artery resistance, x ± s",[12],0.299 ± 0.026 Kpa/ml/min
same,"myocardial oxygen consumption, x ± s",[12],210.2 ± 8.65 mL/min.100 g^−1
same,"myocardial oxygen uptake, x ± s",[12],74.8 ± 5.66%
same,"total peripheral resistance (TPR), x ± s",[12],915.2 ± 199.9 dyn·s·cm^−5
same,"cardiac output, x ± s",[13],1.16 ± 0.14 L/min
same,"coronary artery resistance, x ± s",[13],0.288 ± 0.026 Kpa/ml/min
same,"myocardial oxygen consumption, x ± s",[13],212.9 ± 7.2 mL/min.100 g^−1
same,"myocardial oxygen uptake, x ± s",[13],74.5 ± 6.05%
same,"total peripheral resistance (TPR), x ± s",[13],907.8 ± 194.0 dyn·s·cm^−5
same,"cardiac output, x ± s",[14],1.16 ± 0.13 L/min
same,"coronary artery resistance, x ± s",[14],0.287 ± 0.028 Kpa/ml/min
same,"myocardial oxygen consumption, x ± s",[14],209.6 ± 9.01 mL/min.100 g^−1
same,"myocardial oxygen uptake, x ± s",[14],75.1 ± 6.48%
same,"total peripheral resistance (TPR), x ± s",[14],891.7 ± 188.6 dyn·s·cm^−5
same,"cardiac output, x ± s",[15],1.14 ± 0.13 L/min
same,"coronary artery resistance, x ± s",[15],0.287 ± 0.031 Kpa/ml/min
same,"total peripheral resistance (TPR), x ± s",[15],881.8 ± 188.9 dyn·s·cm^−5
